Source: PMC9289884 (Journal of Medicinal Chemistry, 2022)
Each block holds one molecule with its values, some of them ahead of it.

How the values were obtained:
[1] = target: Leishmania major PTR1 (LmPTR1); conditions: read-out: Ki LmPTR1; cited from earlier work
LmDHFR = LmDHFR (Leishmania major, UniProt P07382); assay: biochemical
TbDHFR = TbDHFR (Trypanosoma brucei brucei, UniProt Q27783); assay: biochemical
L. major DHFR (LmDHFR) = conditions: read-out: Ki LmDHFR; cited from earlier work
human DHFR (hDHFR) = conditions: read-out: Ki hDHFR; cited from earlier work
[2] = system: T. brucei brucei Lister 427 bloodstream forms; assay: Efficacy against T. brucei bloodstream forms, resazurin-based assay; assay type: cell-based, Trypanosoma brucei brucei; conditions: 72 h; for inhibition at 10 µM: Trypanosoma brucei, read-out: % inhibition T. brucei at 10 µM ± SD; for % inhibition T. brucei at 10 µM ± SD: 10 µM compound, T. brucei brucei Lister 427 bloodstream form
hDHFR = target: T1, hDHFR (Homo sapiens, UniProt P00374); assay: biochemical; conditions: for hDHFR IC50: off-target
T1 sequence (P00374 1-187): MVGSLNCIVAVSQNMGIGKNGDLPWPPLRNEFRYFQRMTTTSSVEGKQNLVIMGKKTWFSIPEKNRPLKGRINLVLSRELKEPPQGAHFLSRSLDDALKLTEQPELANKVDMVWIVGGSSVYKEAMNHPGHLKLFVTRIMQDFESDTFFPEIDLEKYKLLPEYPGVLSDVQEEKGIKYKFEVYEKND

LmPTR1 = target: T2, LmPTR1 (Leishmania major, UniProt Q01782); assay: biochemical
T2 sequence (Q01782 1-288): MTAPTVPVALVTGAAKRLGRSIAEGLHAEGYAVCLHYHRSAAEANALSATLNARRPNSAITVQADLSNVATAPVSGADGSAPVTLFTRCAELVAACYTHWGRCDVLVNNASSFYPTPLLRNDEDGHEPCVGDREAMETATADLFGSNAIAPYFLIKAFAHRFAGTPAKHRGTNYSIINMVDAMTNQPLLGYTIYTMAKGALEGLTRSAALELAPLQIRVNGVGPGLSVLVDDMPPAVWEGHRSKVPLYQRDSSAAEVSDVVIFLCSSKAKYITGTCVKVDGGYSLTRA

hTS = hTS (Homo sapiens, UniProt P04818); assay: biochemical
hTS, sequence (P04818 whole entry): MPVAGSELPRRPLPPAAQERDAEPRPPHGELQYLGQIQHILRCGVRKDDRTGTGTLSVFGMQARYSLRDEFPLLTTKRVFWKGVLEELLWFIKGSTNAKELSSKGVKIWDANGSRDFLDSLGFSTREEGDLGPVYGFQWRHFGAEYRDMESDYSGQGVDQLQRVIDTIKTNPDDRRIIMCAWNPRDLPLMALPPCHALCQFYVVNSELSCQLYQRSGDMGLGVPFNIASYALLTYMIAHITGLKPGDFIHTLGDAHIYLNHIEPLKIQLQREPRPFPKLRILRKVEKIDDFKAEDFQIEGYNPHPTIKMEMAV

[3] = Cytotoxicity on THP-1-derived macrophages, colorimetric MTT assay; assay type: cell-based; conditions: human

TbDHFR, sequence (Q27783 whole entry): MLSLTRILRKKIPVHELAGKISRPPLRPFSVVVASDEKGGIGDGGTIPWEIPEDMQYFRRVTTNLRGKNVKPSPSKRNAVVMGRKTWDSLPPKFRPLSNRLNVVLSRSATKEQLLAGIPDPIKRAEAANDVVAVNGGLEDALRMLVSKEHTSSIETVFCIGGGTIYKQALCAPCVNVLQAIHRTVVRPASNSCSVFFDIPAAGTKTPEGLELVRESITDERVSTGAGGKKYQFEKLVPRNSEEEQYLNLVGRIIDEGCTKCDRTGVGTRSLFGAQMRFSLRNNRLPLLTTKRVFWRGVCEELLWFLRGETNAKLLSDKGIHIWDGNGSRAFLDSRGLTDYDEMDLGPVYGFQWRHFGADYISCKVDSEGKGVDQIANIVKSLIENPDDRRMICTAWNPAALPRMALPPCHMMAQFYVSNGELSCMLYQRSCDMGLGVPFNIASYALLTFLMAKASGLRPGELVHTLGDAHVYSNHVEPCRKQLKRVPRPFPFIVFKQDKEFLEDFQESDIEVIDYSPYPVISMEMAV
LmDHFR, sequence (P07382 whole entry): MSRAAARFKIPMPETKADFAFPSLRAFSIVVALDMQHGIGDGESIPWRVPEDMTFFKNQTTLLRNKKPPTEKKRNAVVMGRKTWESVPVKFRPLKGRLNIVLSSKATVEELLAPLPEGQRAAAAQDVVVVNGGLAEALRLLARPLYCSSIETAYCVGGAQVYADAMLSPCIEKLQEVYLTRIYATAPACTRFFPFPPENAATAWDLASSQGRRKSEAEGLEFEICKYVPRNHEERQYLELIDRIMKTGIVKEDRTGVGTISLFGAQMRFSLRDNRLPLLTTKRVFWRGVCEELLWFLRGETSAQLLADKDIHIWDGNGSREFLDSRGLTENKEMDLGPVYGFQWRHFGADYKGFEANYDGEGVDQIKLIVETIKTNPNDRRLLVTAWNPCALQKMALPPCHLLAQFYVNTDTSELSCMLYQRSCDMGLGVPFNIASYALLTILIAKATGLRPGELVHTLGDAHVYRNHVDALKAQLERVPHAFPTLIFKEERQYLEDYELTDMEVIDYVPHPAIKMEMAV

SMILES: COC(=O)C1CCN(C(=O)c2ccc(N(C)Cc3cnc4nc(N)nc(N)c4n3)cc2)CC1 [Compound 1b, methyl-1-(4-(((2,4-diaminopteridin-6-yl)methyl)(methyl)amino)benzoyl)piperidine-4-carboxylate, reference compound]
Ki [1]: 40 nM
IC50 (LmDHFR): 300 nM
IC50 (TbDHFR): 300 nM

SMILES: COC(=O)C1CCN(C(=O)c2ccc(NCc3cnc4nc(N)nc(N)c4n3)cc2)CC1 [Compound 1c, methyl-1-(4-(((2,4-diaminopteridin-6-yl)methyl)amino)benzoyl)piperidine-4-carboxylate]
Ki [1]: 100 nM
Ki (L. major DHFR (LmDHFR)): 4000 nM
Ki (human DHFR (hDHFR)): 10000 nM

SMILES: COC(=O)C1CCN(C(=O)c2ccc(N(Cc3ccccc3)Cc3cnc4nc(N)nc(N)c4n3)cc2)CC1 [Compound 2c]
inhibition at 10 µM [2]: 75%
IC50 (TbDHFR): ~1000 nM

SMILES: Nc1nc(N)c2nc(CNc3cccc4ccccc34)cnc2n1 [Compound 3c]
IC50 (hDHFR): 4000 nM
IC50 (TbDHFR): 500 nM

SMILES: Nc1nc(N)c2nc(C(=O)NCc3ccccc3)cnc2n1 [Compound 3d]
LmDHFR IC50 (LmDHFR): do not show inhibitory activity
TbDHFR IC50 (TbDHFR): do not show inhibitory activity

SMILES: Nc1nc(N)c2nc(C(=O)NCc3cccc(C(F)(F)F)c3)cnc2n1 [Compound 3e]
LmDHFR IC50 (LmDHFR): do not show inhibitory activity
TbDHFR IC50 (TbDHFR): do not show inhibitory activity

SMILES: Nc1nc(N)c2nc(CNc3ccc(C(=O)NCCc4ccccc4)cc3)cnc2n1 [Compound 4e]
inhibition at 10 µM [2]: 40%

SMILES: COc1ccc(CNC(=O)c2ccc(CNCc3cnc4nc(N)nc(N)c4n3)cc2)cc1 [Compound 4f]
% inhibition T. brucei at 10 µM ± SD [2]: inactive

SMILES: Nc1nc(N)c2nc(CNCc3ccc(Oc4ccccc4)cc3)cnc2n1 [Compound 4h]
% inhibition T. brucei at 10 µM ± SD [2]: inactive

SMILES: COc1cc(Oc2ccc(CNCc3cnc4nc(N)nc(N)c4n3)cc2)cc(OC)c1OC [Compound 4j]
% inhibition T. brucei at 10 µM ± SD [2]: inactive

SMILES: CCN(Cc1cnc2nc(N)nc(N)c2n1)c1ccc(C(=O)c2ccccc2)cc1 [Compound 5d]
CC50 [3]: 25000 to 50000 nM

SMILES: COc1ccc(Oc2ccc(CN(Cc3ccccc3)Cc3cnc4nc(N)nc(N)c4n3)cc2)cc1 [Compound 5e]
CC50 [3]: 12500 to 25000 nM

SMILES: COc1ccc(Oc2ccc(CN(C)Cc3cnc4nc(N)nc(N)c4n3)cc2)cc1 [Compound 5f]
CC50 [3]: 12500 to 25000 nM

Further lines, results first:

IC50 (LmDHFR): 100 nM
SMILES: CCOC(=O)C1CCN(C(=O)c2ccc(N(C)Cc3cnc4nc(N)nc(N)c4n3)cc2)CC1 [Compound 4a]

IC50 (LmPTR1): 100 nM
SMILES: CN(Cc1cnc2nc(N)nc(N)c2n1)c1ccc(C(=O)N2CCCCC2)cc1 [Compound 4c]

hDHFR IC50 (hDHFR): inactive
LmDHFR IC50 (LmDHFR): inactive
TbDHFR IC50 (TbDHFR): inactive
SMILES: COc1ccc(Oc2ccc(CNCc3cnc4nc(N)nc(N)c4n3)cc2)cc1 [Compound 4i]

IC50 (hTS): 29000 nM
hDHFR IC50 (hDHFR): inactive
SMILES: NC(=O)C1CCCN1C(=O)Cc1ccc(N(CCCO)Cc2cnc3nc(N)nc(N)c3n2)cc1 (centres unmarked) [Compound 5b]

IC50 (LmDHFR): 200 nM
SMILES: CCOC(=O)C1CCN(C(=O)c2ccc(N(CC)Cc3cnc4nc(N)nc(N)c4n3)cc2)CC1 [Compound 5c]
